Experimental data as given in patent US20180238860A1, “INDIVIDUAL METHOD PREDICTIVE OF THE DNA-BREAKING GENOTOXIC EFFECTS OF CHEMICAL OR BIOCHEMICAL AGENTS” (priority 2015, published 2018).

What was measured:
Assay type in all cases: cell-based, human
[1] = test system: GM02718 cells; assay: pH2AX foci immunofluorescence 24 h after contacting, GM02718 cell line; settings: for pH2AX(24 h) + 2xSEM / pH2AX(24 h): GM002718; for pH2AX(24 h): 24 hours after contacting
Procedure: (§1) the cells are fixed in 3% paraformaldehyde and 2% sucrose for 15 minutes at ambient temperature and permeabilized in 20 mM HEPES buffer solution (4-(2-hydroxyethyl)-1-piperazine ethane sulfonic acid) at pH 7.4, 50 mM NaCl, 3 mM MgCl2, 300 mM sucrose, 0.5% Triton X-100 (a non-ionic surfactant having the formula t-Oct-C6H4-(OCH2CH2)×OH where x=9-10, CAS No. 9002-93-1, supplied for example by Sigma Aldrich) for 3 minutes. The glass coverslips are then washed in phosphate buffer saline (known as the acronym PBS) before immunological staining. The incubation took place for 40 min at 37° C. in PBS supplemented with 2% bovine serum albumin (known as the acronym BSA or fraction V, supplied for example by Sigma Aldrich) and was followed by a wash with PBS. Anti-pH2AX primary antibodies are used at a concentration of 1:800. The incubations with anti-mouse FITC or anti-rabbit TRITC secondary antibodies (1:100, supplied by Sigma Aldrich) were performed at 37° C. in 2% BSA for 20 minutes. Glass coverslips were treated with Vectashield™ containing DAPI (4,6-Diamidino-2-phenylindole) to label the nucleus. Staining with DAPI also makes it possible, indirectly, to determine the number of cells in phase G1 (nuclei with homogenous DAPI staining), in phase S (nuclei with numerous pH2AX foci), in phase G2 (nuclei with heterogeneous DAPI staining) and metaphases (visible chromosomes).
The cell line GM02718 was amplified according to the recommendations of the supplier (Coriell Institute) until the number of cells sought was obtained.
(§2) After obtaining a sufficient number of cells (generally after one to 3 weeks), the first experiments were conducted using the process according to the invention. The GM02718, or 03HLS, line cells were inoculated on glass coverslips in Petri dishes. A portion of these coverslips was then contacted with 5FU at a concentration of 30 μM. By way of verification, a further portion of these coverslips was contacted with 5FU at a given concentration (see table 2, see FIG. 2 (B) for the cell line GM02718, respectively FIG. 2 (C) for the cell line 03HLS).
(§3) After contacting with 5FU at a given concentration, the cells were stored in the culture incubator at 37° C. 24 hours after contacting with 5FU at a given concentration as presented in table 2, the mean number of nuclear foci obtained with the marker pH2AX was acquired. The acquisition of the results was carried out using these coverslips on an immunofluorescence microscope (Olympus model). The reading was performed directly by counting the foci obtained with the marker pH2AX on at least 50 cells in G0/G1 for each point or using dedicated image analysis software (imageJ).
(§4) In order to obtain results of sufficient statistical reliability to serve as a basis for diagnosis, 3 independent series of experiments were performed. The mean and standard errors of the mean (“SEM” or σ) of each of the numbers of foci acquired after 24 hours of contacting the control cells with 5FU at a given concentration was calculated and presented in table 2 and in FIG. 2 (B) for the cell line GM02718, respectively FIG. 2 (C) for the cell line 03HLS.

[2] = test system: MRC9 (control cells); assay: pH2AX foci immunofluorescence 24 h after contacting, MRC9 control fibroblasts; settings: for pH2AX(24 h) + 2xSEM / pH2AX(24 h): MRC9; for pH2AX(24 h): 24 hours after contacting
Procedure: as §1
Commercial MRC9 control fibroblasts were amplified according to the recommendations of the supplier (SIGMA-ALDRICH) until the number of cells sought was obtained. After obtaining a sufficient number of cells (generally after one to 3 weeks), the first experiments were conducted using the process according to the invention. The cells were inoculated on glass coverslips in Petri dishes. A portion of these coverslips was then contacted with the medium under test comprising 5FU at a given concentration presented in table 2 hereinafter.
as §3
In order to obtain results of sufficient statistical reliability to serve as a basis for diagnosis, 3 independent series of experiments were performed. The mean and standard errors of the mean (“SEM” or σ) of each of the numbers of foci acquired after 24 hours of contacting the control cells with 5FU at a given concentration was calculated and presented in table 2.

[3] = test system: 03HLS cells; assay: pH2AX foci immunofluorescence 24 h after contacting, 03HLS patient skin cell line; settings: for pH2AX(24 h): 24 hours after contacting
Procedure: as §1
For the line 03 HLS, a skin cell sample from a patient was sampled by biopsy via the “skin punch” method known to those skilled in the art. The cell sample was then placed in DMEM medium+20% sterile fetal calf serum. The cell sample was then transferred without delay to a specialized laboratory, so that the sample remained not more than 38 hours at ambient temperature.
On receipt, the cell sample from the biopsy was established in the form of an amplifiable 03HLS cell line according to a procedure well known to culture laboratories and those skilled in the art: using particularly the trypsin dispersion, the cells are once again diluted in replenished medium and so on until the number of cells sought is obtained.
as §2, §3, §4

[4] = test system: 1BR3 cells; assay: Micronuclei per 100 cells 24 h after contacting, 1BR3
Procedure: (§5) In one embodiment, on receipt, the tissue sample (typically the biopsy) is established in the form of an amplifiable cell line without a viral or chemical transformation agent according to an ancillary procedure well known to culture laboratories, as underlined by the publication of Elkind et al. “The radiobiology of cultured mammalian cell”, Gordon and Breach (1967). Once the number of cells is sufficient (typically after 1 to 3 weeks), the first experiments are carried out using the process according to the invention. A cell sample is prepared: The cells are inoculated on glass coverslips in Petri dishes. A portion of these coverslips are contaminated with metals or pesticides or any other DNA-breaking chemical or biochemical agent at different concentrations. A further portion is not contaminated; it represents the spontaneous state. During contamination, the cells remain in the culture incubator at 37° C.
as §1
Counterstaining with DAPI (a DNA marker known to those skilled in the art) makes it possible to locate the nucleus to situate the cytoplasmic or nuclear location to quantify the micronuclei, which are complementary cell markers to the data on the foci.
The tables hereinafter summarize the results of numerous experiments which were carried out as described in the “Detailed description” section above.
In tables 3 and 4, “pH2AX” corresponds to the mean number of nuclear foci obtained with the marker pH2AX, 24 hours after contacting the cell sample with the chemical agent at the concentration C (NpH2AX(24 h, C)), and where “Micronuclei” corresponds to the mean number of micronuclei observed per 100 cells 24 hours after contacting the cell sample with the chemical agent at the concentration C(NMN(24 h, C)).

[5] = test system: 1BR3 (control cells); assay: pH2AX foci immunofluorescence 24 h after contacting, 1BR3 control fibroblasts; settings: 1BR3, 24 hours after contacting (Table 3)
Procedure: as §5
For the contaminated cells, characteristics are acquired corresponding to the state after an incubation time with the DNA-breaking chemical or biochemical agent. Said characteristics are represented by foci corresponding to the marker pH2AX. The cells on glass coverslips are then fixed, lysed and hybridized. The following procedure, known per se (Bodgi et al, “A single formula to describe radiation-induced protein relocalization: towards a mathematical definition of individual radiosensitivity”, J Theor Biol. 21 p 333:135-45.2013):
as §1
The results are acquired using these coverslips on an immunofluorescence microscope (Olympus model for example). The reading may be direct (typically by counting the foci on at least 50 cells in G0/G1 for each point) or using dedicated image analysis software, or on an automated microscope; preferably the software or automated microscope methods are calibrated with manual determinations.
Commercial 1BR3 and 149 BR control fibroblasts were amplified according to the recommendations of the supplier (SIGMA-ALDRICH) until the number of cells sought was obtained. After obtaining a sufficient number of cells (generally after one to 3 weeks), the first experiments were conducted using the process according to the invention. The cells were inoculated on glass coverslips in Petri dishes.
The acquisition of the results was carried out using these coverslips on an immunofluorescence microscope (Olympus model). The reading was performed directly by counting the foci obtained with the marker pH2AX on at least 50 cells in G0/G1 for each point or using dedicated image analysis software (imageJ). […]

Compound: O=c1[nH]cc(F)c(=O)[nH]1 [5FU]
- pH2AX(24 h) + 2xSEM ([1]; 5FU 1.00 μM): 3.32 foci
- pH2AX(24 h) ([1]; 5FU 1.00 μM): 2.70 foci
- pH2AX(24 h) + 2xSEM ([1]; 5FU 3.00 μM): 2.43 foci
- pH2AX(24 h) ([1]; 5FU 3.00 μM): 2.41 foci
- pH2AX(24 h) + 2xSEM ([1]; 5FU 10.00 μM): 3.87 foci
- pH2AX(24 h) ([1]; 5FU 10.00 μM): 2.96 foci
- pH2AX(24 h) + 2xSEM ([1]; 5FU 30.00 μM): 2.38 foci
- pH2AX(24 h) ([1]; 5FU 30.00 μM): 2.38 foci
- number of pH2AX foci ([1]; GM02718, 5FU concentration of 30 μM, 24 h): approximately 2.38 foci
- genotoxic risk group ([1]; cell line GM02718 at Cref 30 μM): group II
- pH2AX(24 h) + 2xSEM ([2]; 5FU 1.00 μM): 1.97 foci
- pH2AX(24 h) ([2]; 5FU 1.00 μM): 1.16 foci
- pH2AX(24 h) + 2xSEM ([2]; 5FU 3.00 μM): 1.93 foci
- pH2AX(24 h) ([2]; 5FU 3.00 μM): 1.38 foci
- pH2AX(24 h) + 2xSEM ([2]; 5FU 10.00 μM): 0.51 foci
- pH2AX(24 h) ([2]; 5FU 10.00 μM): 0.30 foci
- pH2AX(24 h) + 2xSEM ([2]; 5FU 30.00 μM): 2.01 foci
- pH2AX(24 h) ([2]; 5FU 30.00 μM): 1.18 foci
- reference concentration Cref defined by NpH2AX(24 h, Cref)+2σ=2 ([2]; control cell line MRC9): 30 µM
- pH2AX(24 h) + 2xSEM ([3]; 03HLS, 5FU 1.00 μM): 1.49 foci
- pH2AX(24 h) ([3]; 03HLS, 5FU 1.00 μM): 1.40 foci
- pH2AX(24 h) + 2xSEM ([3]; 03HLS, 5FU 3.00 μM): 2.26 foci
- pH2AX(24 h) ([3]; 03HLS, 5FU 3.00 μM): 1.69 foci
- pH2AX(24 h) + 2xSEM ([3]; 03HLS, 5FU 10.00 μM): 1.69 foci
- pH2AX(24 h) ([3]; 03HLS, 5FU 10.00 μM): 1.63 foci
- pH2AX(24 h) + 2xSEM ([3]; 03HLS, 5FU 30.00 μM): 2.59 foci
- pH2AX(24 h) ([3]; 03HLS, 5FU 30.00 μM): 2.00 foci
- number of pH2AX foci ([3]; 03HLS, 5FU concentration of 30 μM, 24 h): ~2.59 foci
- genotoxic risk group ([3]; cell line 03HLS at Cref 30 μM): group II

Compound: CCNc1nc(Cl)nc(NC(C)C)n1 [Atrazine]
- Micronuclei ([4]; 0.01 μM): 5 per 100 cells
- Micronuclei ([4]; 0.1 μM): 6 per 100 cells
- Micronuclei ([4]; 1 μM): 13.5 per 100 cells
- Micronuclei ([4]; 10 μM): 15 per 100 cells
- Micronuclei ([4]; 20 μM): 40 per 100 cells
- pH2AX ([5]; 0.01 μM): 1 foci
- pH2AX ([5]; 0.1 μM): 1.3 foci
- pH2AX ([5]; 0.3 μM): 1.8 foci
- pH2AX ([5]; 10 μM): 3.1 foci
- pH2AX ([5]; 30 μM): 3.5 foci

Compound: Oc1c(Cl)c(Cl)c(Cl)c(Cl)c1Cl [PCP]
- Micronuclei ([4]; 0.3 μM): 2 per 100 cells
- Micronuclei ([4]; 3 μM): 4 per 100 cells
- Micronuclei ([4]; 10 μM): 10 per 100 cells
- Micronuclei ([4]; 50 μM): 10 per 100 cells
- Micronuclei ([4]; 100 μM): 20 per 100 cells
- pH2AX ([5]; 0.3 μM): 1.2 foci
- pH2AX ([5]; 10 μM): 1.5 foci
- pH2AX ([5]; 30 μM): 1.9 foci
- pH2AX ([5]; 100 μM): 4.3 foci
